Assays:
Assay type in all cases: in vivo
[1] = system: lambsquarters (Chenopodium album, CHA); assay: Pre-emerge test, lambsquarters; conditions: 250 g ai/ha, 14 days after application, rating scale 0-100 (0 no damage, 100 complete death)
Procedure, shortened: (§1)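 Scores at 14 days after treatment use a 0–100 scale, where 0 is no damage and 100 is death of all plants. Treatments were acetone solutions sprayed at 8–1000 g ai/ha onto soil sown one day prior.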

[2] = system: velvetleaf (Abutilon theophrasti, ABT); assay: Pre-emerge test, velvetleaf; conditions: 250 g ai/ha, 14 days after application, rating scale 0-100 (0 no damage, 100 complete death)
Procedure, shortened: as §1

[3] = system: johnsongrass (Sorghum halepense, SOH); assay: Pre-emerge test, johnsongrass; conditions: 250 g ai/ha, 14 days after application, rating scale 0-100 (0 no damage, 100 complete death)
Procedure, shortened: as §1

[4] = system: barnyardgrass (Echinachloa crus-galli, ECC); assay: Pre-emerge test, barnyardgrass; conditions: 250 g ai/ha, 14 days after application, rating scale 0-100 (0 no damage, 100 complete death)
Procedure, shortened: as §1

[5] = system: soybean (Glycine max L., var. Pella 86, SOY); assay: Post-emerge test, crop damage soybean; conditions: post-emerge, 250 g ai/ha, 14 days after application, rating scale 0-100 (0 no damage, 100 complete death)
Procedure, shortened: (§2)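 Greenhouse post-emergence spray onto plants at about the 2-3 leaf stage in sandy loam pots, compound in acetone at 187 l/ha plus 0.25% v/v non-ionic surfactant, 8-1000 g ai/ha by track sprayer. Phytotoxicity scored 14 days after application, 0 (no damage) to 100 (complete death).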

[6] = system: upland rice (Oryza sp., var.Tebonnet, RICE); assay: Post-emerge test, crop damage upland rice; conditions: post-emerge, 250 g ai/ha, 14 days after application, rating scale 0-100 (0 no damage, 100 complete death)
Procedure, shortened: as §2

[7] = system: barnyardgrass (Echinachloa crus-galli, ECC); assay: Post-emerge test, barnyardgrass; conditions: 250 g ai/ha, 14 days after application, rating scale 0-100 (0 no damage, 100 complete death)
Procedure, shortened: as §2

[8] = system: wheat (Triticum aestivum); assay: Pre-emerge test, crop damage wheat; conditions: pre-emerge, 250 g ai/ha, 14 days after application, rating scale 0-100 (0 no damage, 100 complete death)
Procedure, shortened: (§3)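 Greenhouse pre-emergence test in 10 cm pots of sandy loam soil mix; seeds sown one day before treatment. Compounds in acetone were track-sprayed at 187 l/ha, 8–1000 g ai/ha. Phytotoxicity rated 0–100 (0 = no damage, 100 = complete death) at 14 days after application.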

[9] = system: soybean (Glycine max L., var. Pella 86, SOY); assay: Pre-emerge test, crop damage soybean; conditions: pre-emerge, 250 g ai/ha, 14 days after application, rating scale 0-100 (0 no damage, 100 complete death)
Procedure, shortened: as §3

[10] = system: cocklebur (Xanthium strumariunt, XAS); assay: Pre-emerge test, cocklebur; conditions: 250 g ai/ha, 14 days after application, rating scale 0-100 (0 no damage, 100 complete death)
Procedure, shortened: as §1

[11] = system: large crabgrass (Digitaria sanguinalis, DIS); assay: Post-emerge test, large crabgrass; conditions: 250 g ai/ha, 14 days after application, rating scale 0-100 (0 no damage, 100 complete death)
Procedure, shortened: as §2

[12] = system: large crabgrass (Digitaria sanguinalis, DIS); assay: Pre-emerge test, large crabgrass; conditions: 250 g ai/ha, 14 days after application, rating scale 0-100 (0 no damage, 100 complete death)
Procedure, shortened: as §1

[13] = system: wheat (Triticum aestivum); assay: Post-emerge test, crop damage wheat; conditions: post-emerge, 250 g ai/ha, 14 days after application, rating scale 0-100 (0 no damage, 100 complete death)
Procedure, shortened: as §2

[14] = system: redroot pigweed (Amaranthus retroflexus, AMR); assay: Pre-emerge test, redroot pigweed; conditions: 250 g ai/ha, 14 days after application, rating scale 0-100 (0 no damage, 100 complete death)
Procedure, shortened: as §1

[15] = system: field corn (Zea mays L., var. Dekalb 535, CORN); assay: Post-emerge test, crop damage field corn; conditions: post-emerge, 250 g ai/ha, 14 days after application, rating scale 0-100 (0 no damage, 100 complete death)
Procedure, shortened: as §2

[16] = system: upland rice (Oryza sp., var.Tebonnet, RICE); assay: Pre-emerge test, crop damage upland rice; conditions: pre-emerge, 250 g ai/ha, 14 days after application, rating scale 0-100 (0 no damage, 100 complete death)
Procedure, shortened: as §3

[17] = system: sicklepod (Cassia obtusifolia, CAO); assay: Post-emerge test, sicklepod; conditions: 250 g ai/ha, 14 days after application, rating scale 0-100 (0 no damage, 100 complete death)
Procedure, shortened: as §2

[18] = system: redroot pigweed (Amaranthus retroflexus, AMR); assay: Post-emerge test, redroot pigweed; conditions: 250 g ai/ha, 14 days after application, rating scale 0-100 (0 no damage, 100 complete death)
Procedure, shortened: as §2

[19] = system: lambsquarters (Chenopodium album, CHA); assay: Post-emerge test, lambsquarters; conditions: 250 g ai/ha, 14 days after application, rating scale 0-100 (0 no damage, 100 complete death)
Procedure, shortened: as §2

[20] = system: common ragweed (Ambrosia artemisiifolia L., AML); assay: Pre-emerge test, common ragweed; conditions: 250 g ai/ha, 14 days after application, rating scale 0-100 (0 no damage, 100 complete death)
Procedure, shortened: as §1

[21] = system: ivyleaf morningglory (Ipomoea hederacea, IPH); assay: Pre-emerge test, ivyleaf morningglory; conditions: 250 g ai/ha, 14 days after application, rating scale 0-100 (0 no damage, 100 complete death)
Procedure, shortened: as §1

[22] = system: sicklepod (Cassia obtusifolia, CAO); assay: Pre-emerge test, sicklepod; conditions: 250 g ai/ha, 14 days after application, rating scale 0-100 (0 no damage, 100 complete death)
Procedure, shortened: as §1

[23] = system: ivyleaf morningglory (Ipomoea hederacea, IPH); assay: Post-emerge test, ivyleaf morningglory; conditions: 250 g ai/ha, 14 days after application, rating scale 0-100 (0 no damage, 100 complete death)
Procedure, shortened: as §2

[24] = system: johnsongrass (Sorghum halepense, SOH); assay: Post-emerge test, johnsongrass; conditions: 250 g ai/ha, 14 days after application, rating scale 0-100 (0 no damage, 100 complete death)
Procedure, shortened: as §2

[25] = system: green foxtail (Setaria viridis, SEV); assay: Pre-emerge test, green foxtail; conditions: 250 g ai/ha, 14 days after application, rating scale 0-100 (0 no damage, 100 complete death)
Procedure, shortened: as §1

[26] = system: cocklebur (Xanthium strumariunt, XAS); assay: Post-emerge test, cocklebur; conditions: 250 g ai/ha, 14 days after application, rating scale 0-100 (0 no damage, 100 complete death)
Procedure, shortened: as §2

[27] = system: field corn (Zea mays L., var. Dekalb 535, CORN); assay: Pre-emerge test, crop damage field corn; conditions: pre-emerge, 250 g ai/ha, 14 days after application, rating scale 0-100 (0 no damage, 100 complete death)
Procedure, shortened: as §3

[28] = system: green foxtail (Setaria viridis, SEV); assay: Post-emerge test, green foxtail; conditions: 250 g ai/ha, 14 days after application, rating scale 0-100 (0 no damage, 100 complete death)
Procedure, shortened: as §2

[29] = system: velvetleaf (Abutilon theophrasti, ABT); assay: Post-emerge test, velvetleaf; conditions: 250 g ai/ha, 14 days after application, rating scale 0-100 (0 no damage, 100 complete death)
Procedure, shortened: as §2

[30] = system: common ragweed (Ambrosia artemisiifolia L., AML); assay: Post-emerge test, common ragweed; conditions: 250 g ai/ha, 14 days after application, rating scale 0-100 (0 no damage, 100 complete death)
Procedure, shortened: as §2

Row | SMILES | Pre-emerge Herbicidal Activity CHA (phytotoxicity rating) [1] | Pre-emerge Herbicidal Activity ABT (phytotoxicity rating) [2] | Pre-emerge Herbicidal Activity SOH (phytotoxicity rating) [3] | Pre-emerge Herbicidal Activity ECC (phytotoxicity rating) [4] | Post-emerge crop damage SOY (phytotoxicity rating) [5] | Post-emerge crop damage RICE (phytotoxicity rating) [6] | Post-emerge Herbicidal Activity ECC (phytotoxicity rating) [7] | Pre-emerge crop damage WHEAT (phytotoxicity rating) [8] | Pre-emerge crop damage SOY (phytotoxicity rating) [9] | Pre-emerge Herbicidal Activity XAS (phytotoxicity rating) [10] | Post-emerge Herbicidal Activity DIS (phytotoxicity rating) [11] | Pre-emerge Herbicidal Activity DIS (phytotoxicity rating) [12] | Post-emerge crop damage WHEAT (phytotoxicity rating) [13] | Pre-emerge Herbicidal Activity AMR (phytotoxicity rating) [14] | Post-emerge crop damage CORN (phytotoxicity rating) [15] | Pre-emerge crop damage RICE (phytotoxicity rating) [16] | Post-emerge Herbicidal Activity CAO (phytotoxicity rating) [17] | Post-emerge Herbicidal Activity AMR (phytotoxicity rating) [18] | Post-emerge Herbicidal Activity CHA (phytotoxicity rating) [19] | Pre-emerge Herbicidal Activity AML (phytotoxicity rating) [20] | further results
1 | CC1C(=O)Nc2c(-c3nn(C)c(OC(F)F)c3Cl)c(F)cc3c2N1C(=O)C(C)(C)O3 (stereo not drawn) [1-60] | 100 | 100 | 100 | 100 | 50 | 0 | 98 | 50 | 40 | 85 | 0 | 100 | 30 | 100 | 5 | 70 | 60 | 85 | 100 | 80 | Pre-emerge Herbicidal Activity IPH (phytotoxicity rating) [21]: 100; Pre-emerge Herbicidal Activity CAO (phytotoxicity rating) [22]: 98; Post-emerge Herbicidal Activity IPH (phytotoxicity rating) [23]: 100; Post-emerge Herbicidal Activity SOH (phytotoxicity rating) [24]: 0; Pre-emerge Herbicidal Activity SEV (phytotoxicity rating) [25]: 100; Post-emerge Herbicidal Activity XAS (phytotoxicity rating) [26]: 85; Pre-emerge crop damage CORN (phytotoxicity rating) [27]: 80; Post-emerge Herbicidal Activity SEV (phytotoxicity rating) [28]: 95; Post-emerge Herbicidal Activity ABT (phytotoxicity rating) [29]: 100; Post-emerge Herbicidal Activity AML (phytotoxicity rating) [30]: 70
2 | CCC1C(=O)Nc2c(-c3nn(C)c(OC(F)F)c3Cl)c(F)cc3c2N1C(=O)C(C)(C)O3 (stereo not drawn) [1-61] | 100 | 100 | 100 | 99 | 25 | 30 | 35 | 15 | 25 | 60 | 0 | 98 | 30 | 100 | 3 | 10 | 30 | 75 | 99 | 80 | Pre-emerge Herbicidal Activity IPH (phytotoxicity rating) [21]: 98; Pre-emerge Herbicidal Activity CAO (phytotoxicity rating) [22]: 65; Post-emerge Herbicidal Activity IPH (phytotoxicity rating) [23]: 100; Post-emerge Herbicidal Activity SOH (phytotoxicity rating) [24]: 20; Pre-emerge Herbicidal Activity SEV (phytotoxicity rating) [25]: 100; Post-emerge Herbicidal Activity XAS (phytotoxicity rating) [26]: 90; Pre-emerge crop damage CORN (phytotoxicity rating) [27]: 0; Post-emerge Herbicidal Activity SEV (phytotoxicity rating) [28]: 85; Post-emerge Herbicidal Activity ABT (phytotoxicity rating) [29]: 98; Post-emerge Herbicidal Activity AML (phytotoxicity rating) [30]: 60
3 | CC1C(=O)N(C)c2c(-c3nn(C)c(OC(F)F)c3Cl)c(F)cc3c2N1C(=O)CO3 (stereo not drawn) [1-62] | 100 | 90 | 90 | 90 | 0 | 70 | 30 | 45 | 10 | 25 | 30 | 50 | 50 | 65 | 0 | 50 | 35 | 99 | 100 | 35 | Pre-emerge Herbicidal Activity IPH (phytotoxicity rating) [21]: 60; Pre-emerge Herbicidal Activity CAO (phytotoxicity rating) [22]: 50; Post-emerge Herbicidal Activity IPH (phytotoxicity rating) [23]: 75; Post-emerge Herbicidal Activity SOH (phytotoxicity rating) [24]: 0; Pre-emerge Herbicidal Activity SEV (phytotoxicity rating) [25]: 100; Post-emerge Herbicidal Activity XAS (phytotoxicity rating) [26]: 65; Pre-emerge crop damage CORN (phytotoxicity rating) [27]: 10; Post-emerge Herbicidal Activity SEV (phytotoxicity rating) [28]: 60; Post-emerge Herbicidal Activity ABT (phytotoxicity rating) [29]: 80; Post-emerge Herbicidal Activity AML (phytotoxicity rating) [30]: 90
4 | O=C1CN2C(=O)COc3cc(F)c(-c4ncc(C(F)(F)F)cc4Cl)c(c32)N1 [1-63] | 100 | 100 | 100 | 100 | 100 | 75 | 100 | 90 | 50 | 100 | 80 | 100 | 30 | 100 | 20 | 100 | 50 | 100 | 100 | 100 | Pre-emerge Herbicidal Activity IPH (phytotoxicity rating) [21]: 100; Pre-emerge Herbicidal Activity CAO (phytotoxicity rating) [22]: 99; Post-emerge Herbicidal Activity IPH (phytotoxicity rating) [23]: 100; Post-emerge Herbicidal Activity SOH (phytotoxicity rating) [24]: 99; Pre-emerge Herbicidal Activity SEV (phytotoxicity rating) [25]: 100; Post-emerge Herbicidal Activity XAS (phytotoxicity rating) [26]: 100; Pre-emerge crop damage CORN (phytotoxicity rating) [27]: 100; Post-emerge Herbicidal Activity SEV (phytotoxicity rating) [28]: 100; Post-emerge Herbicidal Activity ABT (phytotoxicity rating) [29]: 100; Post-emerge Herbicidal Activity AML (phytotoxicity rating) [30]: 45

— patent publication US6770596B1, “Fused tricyclic compounds, process for their preparation, and herbicidal compositions containing them” (Ishihara Sangyo Kaisha Ltd., priority 2002, dated 2004)
